Data published in PMC11995724, “Antibiotic target discovery by integrated phenotypic and activity-based profiling of electrophilic fragments” (Cell chemical biology, 2025).

Test: in vitro
Details: human, hek293t cells
Work on CCN1C(=O)C(=Cc2ccc(-c3ccc(F)cc3)o2)C(C)=C(C#N)C1=O [9-P09, 1-ethyl-5-{[5-(4-fluorophenyl)furan-2-yl]methylidene}-4-methyl-2,6-dioxo-1,2,5,6-tetrahydropyridine-3-carbonitrile] yielded a viability at 48 h, 25 µM of 127%.
Cc1ccc(C=C(C#N)C(=O)Nc2nccs2)o1 [9-P10, 2-cyano-3-(5-methylfuran-2-yl)-N-(1,3-thiazol-2-yl)prop-2-enamide] showed a viability at 48 h, 25 µM of 126%.
With Cc1ccccc1NC(=O)C(C#N)=Cc1cc2c(cc1[N+](=O)[O-])OCO2 [9-P11, 2-cyano-N-(2-methylphenyl)-3-(6-nitro-1,3-dioxaindan-5-yl)prop-2-enamide] the viability at 48 h, 25 µM was 120%.
COC(=O)c1ccc(C=C(C#N)C(=O)NC(C)C)n1C [9-P12, methyl 5-{2-cyano-2-[(propan-2-yl)carbamoyl]eth-1-en-1-yl}-1-methyl-1H-pyrrole-2-carboxylate] gave a viability at 48 h, 25 µM of 115%.
Work on CCCCNC(=O)C(C#N)=Cc1ccc(F)cc1 [9-P13, N-butyl-2-cyano-3-(4-fluorophenyl)prop-2-enamide] yielded a viability at 48 h, 25 µM of 124%.
Cc1ccc(C=C(C#N)C(=O)Nc2ccc(C(=O)N(C)C)cc2)o1 [9-P14, 4-[2-cyano-3-(5-methylfuran-2-yl)prop-2-enamido]-N,N-dimethylbenzamide] gave a viability at 48 h, 25 µM of 119%.
Work on N#CC(=Cc1cn2cc(Cl)ccc2n1)C(=O)NC1CCCC1 [9-P15, 3-{6-chloroimidazo[1,2-a]pyridin-2-yl}-2-cyano-N-cyclopentylprop-2-enamide] yielded a viability at 48 h, 25 µM of 120%.
CNC(=O)C(C#N)=Cc1cc(C)n(-c2cccc3ccccc23)c1C [9-P16, 2-cyano-3-[2,5-dimethyl-1-(naphthalen-1-yl)-1H-pyrrol-3-yl]-N-methylprop-2-enamide] showed a viability at 48 h, 25 µM of 109%.
N#CC(=Cc1cc(Cl)ccc1O)C(=O)Nc1cccc2ccccc12 [9-P17, 3-(5-chloro-2-hydroxyphenyl)-2-cyano-N-(naphthalen-1-yl)prop-2-enamide] showed a viability at 48 h, 25 µM of 130%.
N#CC(=Cc1cnc2ccccn12)C(=O)NCc1ccccc1 [9-P18, N-benzyl-2-cyano-3-{imidazo[1,2-a]pyridin-3-yl}prop-2-enamide] gave a viability at 48 h, 25 µM of 127%.
With COc1ccccc1NC(=O)C(C#N)=Cc1sccc1C [9-P19, 2-cyano-N-(2-methoxyphenyl)-3-(3-methylthiophen-2-yl)prop-2-enamide] the viability at 48 h, 25 µM was 133%.
CC(C)Oc1ccccc1C=C(C#N)C(=O)Nc1cccc(Cl)c1 [9-P20, N-(3-chlorophenyl)-2-cyano-3-[2-(propan-2-yloxy)phenyl]prop-2-enamide] gave a viability at 48 h, 25 µM of 107%.
For N#CC(=Cc1ccc(C#N)cc1)C(=O)N1CCCC1 [9-P21, 4-[2-cyano-2-(pyrrolidine-1-carbonyl)eth-1-en-1-yl]benzonitrile], the viability at 48 h, 25 µM was 117%.
C/C(O)=C(\C#N)C(=O)Nc1ccc(-c2ccccc2Cl)cc1 [9-P22, (2Z)-N-{2'-chloro-[1,1'-biphenyl]-4-yl}-2-cyano-3-hydroxybut-2-enamide] showed a viability at 48 h, 25 µM of 107%.
Compound O=C1C=CC(=O)N1c1ccccc1Sc1ccc(Cl)cc1 [10-A03, 1-{2-[(4-chlorophenyl)sulfanyl]phenyl}-2,5-dihydro-1H-pyrrole-2,5-dione] has a viability at 48 h, 25 µM of 7.21%.
CC1Cc2cc(C(=O)CCl)ccc2N1S(C)(=O)=O (stereo not drawn) [10-A04, 2-chloro-1-(1-methanesulfonyl-2-methyl-2,3-dihydro-1H-indol-5-yl)ethan-1-one] showed a viability at 48 h, 25 µM of 0.28%.
COc1ccc(CCN2C(=O)C=CC2=O)cc1 [10-A05, 1-[2-(4-methoxyphenyl)ethyl]-2,5-dihydro-1H-pyrrole-2,5-dione] showed a viability at 48 h, 25 µM of 5.85%.
Cc1cc(C(=O)C(C)Cl)c(C)n1-c1ccccc1 (stereo not drawn) [10-A06, 2-chloro-1-(2,5-dimethyl-1-phenyl-1H-pyrrol-3-yl)propan-1-one] gave a viability at 48 h, 25 µM of 99.9%.
COC(=O)c1sccc1N1C(=O)C=CC1=O [10-A07, methyl 3-(2,5-dioxo-2,5-dihydro-1H-pyrrol-1-yl)thiophene-2-carboxylate] gave a viability at 48 h, 25 µM of 16.6%.
For CC(Cl)C(=O)c1ccc(NS(C)(=O)=O)cc1 (stereo not drawn) [10-A08, N-[4-(2-chloropropanoyl)phenyl]methanesulfonamide], the viability at 48 h, 25 µM was 93.7%.
Compound Cc1ccc(C(=O)CCl)o1 [10-A09, 2-chloro-1-(5-methylfuran-2-yl)ethan-1-one] has a viability at 48 h, 25 µM of 48.3%.
CCOC(=O)c1[nH]c(C)c(C(=O)CCl)c1C [10-A10, ethyl 4-(2-chloroacetyl)-3,5-dimethyl-1H-pyrrole-2-carboxylate] gave a viability at 48 h, 25 µM of 0.365%.
For CC(=O)Nc1c(C)cc(C)c(C(=O)CCl)c1C [10-A12, N-[3-(2-chloroacetyl)-2,4,6-trimethylphenyl]acetamide], the viability at 48 h, 25 µM was 98.1%.
In the case of Cc1cc(C(=O)CCl)co1 [10-A13, 2-chloro-1-(5-methylfuran-3-yl)ethan-1-one], the viability at 48 h, 25 µM was 41.5%.
Work on CCOc1ccc(N2C(=O)C=CC2=O)cc1 [10-A14, 1-(4-ethoxyphenyl)-2,5-dihydro-1H-pyrrole-2,5-dione] yielded a viability at 48 h, 25 µM of 4.27%.
In the case of O=C(CCl)Cc1ccc(Cl)cc1Cl [10-A15, 1-chloro-3-(2,4-dichlorophenyl)propan-2-one], the viability at 48 h, 25 µM was 0.248%.
With O=C(CCl)c1c[nH]c(C(=O)N2CCCC2)c1 [10-A16, 2-chloro-1-[5-(pyrrolidine-1-carbonyl)-1H-pyrrol-3-yl]ethan-1-one] the viability at 48 h, 25 µM was 0.377%.
In the case of CC(Cl)C(=O)c1ccc(F)c(F)c1 (stereo not drawn) [10-A17, 2-chloro-1-(3,4-difluorophenyl)propan-1-one], the viability at 48 h, 25 µM was 66.4%.
In the case of O=C1C=CC(=O)N1c1ccc(SC(F)F)cc1 [10-A18, 1-{4-[(difluoromethyl)sulfanyl]phenyl}-2,5-dihydro-1H-pyrrole-2,5-dione], the viability at 48 h, 25 µM was 3.22%.
O=C(CCl)C1CC12CCCCC2 (stereo not drawn) [10-A19, 2-chloro-1-{spiro[2.5]octan-1-yl}ethan-1-one] gave a viability at 48 h, 25 µM of 86.3%.
Work on Cn1ncc2ccc(CNC(=O)N3CCSSCC3)cc21 [10-A20, N-[(1-methyl-1H-indazol-6-yl)methyl]-1,2,5-dithiazepane-5-carboxamide] yielded a viability at 48 h, 25 µM of 93.8%.
Work on NC(=O)Cc1ccc(C(=O)CCl)s1 [10-A21, 2-[5-(2-chloroacetyl)thiophen-2-yl]acetamide] yielded a viability at 48 h, 25 µM of 46.6%.
In the case of Cc1cccc(-n2c(C)cc(C(=O)CCl)c2C)c1 [10-A22, 2-chloro-1-[2,5-dimethyl-1-(3-methylphenyl)-1H-pyrrol-3-yl]ethan-1-one], the viability at 48 h, 25 µM was 0.013%.
For CC(=O)NCCc1ccc(C(=O)C(C)Cl)cc1 (stereo not drawn) [10-B03, N-{2-[4-(2-chloropropanoyl)phenyl]ethyl}acetamide], the viability at 48 h, 25 µM was 85.1%.
Work on Cn1cccc1C(=O)CCl [10-B04, 2-chloro-1-(1-methyl-1H-pyrrol-2-yl)ethan-1-one] yielded a viability at 48 h, 25 µM of 64.6%.
Work on O=C(CCl)c1c[nH]c2ccccc12 [10-B05, 2-chloro-1-(1H-indol-3-yl)ethan-1-one] yielded a viability at 48 h, 25 µM of 111%.
With O=C(CCl)c1ccc(NC(=O)c2ccccc2)cc1 [10-B06, N-[4-(2-chloroacetyl)phenyl]benzamide] the viability at 48 h, 25 µM was 1.37%.
O=C(O)c1coc(C(=O)CCl)c1 [10-B07, 5-(2-chloroacetyl)furan-3-carboxylic acid] showed a viability at 48 h, 25 µM of 107%.
With Cc1cc(C(=O)CCl)c(C)n1CC1CCCO1 (stereo not drawn) [10-B08, 2-chloro-1-{2,5-dimethyl-1-[(oxolan-2-yl)methyl]-1H-pyrrol-3-yl}ethan-1-one] the viability at 48 h, 25 µM was 54.2%.
With N#Cc1ccc(N2C(=O)C=CC2=O)cc1 [10-B09, 4-(2,5-dioxo-2,5-dihydro-1H-pyrrol-1-yl)benzonitrile] the viability at 48 h, 25 µM was 82.1%.
Work on O=C(CCl)c1ccc(C(F)(F)F)cc1 [10-B10, 2-chloro-1-[4-(trifluoromethyl)phenyl]ethan-1-one] yielded a viability at 48 h, 25 µM of 13.9%.
Work on O=C(c1cc(=O)[nH]c2ccc([N+](=O)[O-])cc12)N1CCSSCC1 [10-B11, 4-(1,2,5-dithiazepane-5-carbonyl)-6-nitro-1,2-dihydroquinolin-2-one] yielded a viability at 48 h, 25 µM of 111%.
Compound Cc1cc(C(=O)CCl)c(C)n1C1CCS(=O)(=O)C1 (stereo not drawn) [10-B12, 3-[3-(2-chloroacetyl)-2,5-dimethyl-1H-pyrrol-1-yl]-1lambda6-thiolane-1,1-dione] has a viability at 48 h, 25 µM of 3.75%.
N#Cc1ccccc1N1C(=O)C=CC1=O [10-B13, 2-(2,5-dioxo-2,5-dihydro-1H-pyrrol-1-yl)benzonitrile] gave a viability at 48 h, 25 µM of 65.2%.
Compound Cc1ccc(-n2c(C)cc(C(=O)CCl)c2C)cc1C [10-B14, 2-chloro-1-[1-(3,4-dimethylphenyl)-2,5-dimethyl-1H-pyrrol-3-yl]ethan-1-one] has a viability at 48 h, 25 µM of 0.754%.
Work on COc1cc(Cl)c(C)cc1N1C(=O)C=CC1=O [10-B15, 1-(4-chloro-2-methoxy-5-methylphenyl)-2,5-dihydro-1H-pyrrole-2,5-dione] yielded a viability at 48 h, 25 µM of 85.2%.
Work on Cc1cc(C(=O)CCl)c(C)n1-c1cccc([N+](=O)[O-])c1 [10-B16, 2-chloro-1-[2,5-dimethyl-1-(3-nitrophenyl)-1H-pyrrol-3-yl]ethan-1-one] yielded a viability at 48 h, 25 µM of 0.976%.
Compound Cc1c(Cl)cccc1N1C(=O)C=CC1=O [10-B17, 1-(3-chloro-2-methylphenyl)-2,5-dihydro-1H-pyrrole-2,5-dione] has a viability at 48 h, 25 µM of 130%.
Cc1cc(C(=O)CCl)c(C)n1CCc1ccccc1 [10-B18, 2-chloro-1-[2,5-dimethyl-1-(2-phenylethyl)-1H-pyrrol-3-yl]ethan-1-one] gave a viability at 48 h, 25 µM of 0.0262%.
For CS(=O)(=O)N1CCc2cc(C(=O)CCl)ccc21 [10-B19, 2-chloro-1-(1-methanesulfonyl-2,3-dihydro-1H-indol-5-yl)ethan-1-one], the viability at 48 h, 25 µM was 7.21%.
Cc1ccc(C(=O)C(C)Cl)cc1C (stereo not drawn) [10-B20, 2-chloro-1-(3,4-dimethylphenyl)propan-1-one] gave a viability at 48 h, 25 µM of 85%.
With O=C(NC1CC1)C1(C(=O)N2CCSSCC2)CCC1 [10-B21, N-cyclopropyl-1-(1,2,5-dithiazepane-5-carbonyl)cyclobutane-1-carboxamide] the viability at 48 h, 25 µM was 95.1%.
In the case of CCOC(=O)c1c(C)[nH]c(C(=O)C(C)Cl)c1C (stereo not drawn) [10-B22, ethyl 5-(2-chloropropanoyl)-2,4-dimethyl-1H-pyrrole-3-carboxylate], the viability at 48 h, 25 µM was 95.2%.
CCC(=O)Nc1ccc(C(=O)CCl)cc1 [10-C03, N-[4-(2-chloroacetyl)phenyl]propanamide] gave a viability at 48 h, 25 µM of 74.1%.
